Entries after “also recorded” stand apart in the source; their conditions may differ.
Experiments:
[1] = biological target: T1, DDB1ΔB-DCAF15biotin and BodipyFL-RBM39RRM2 (Homo sapiens, UniProt Q14498+Q66K64); experiment: TR-FRET RBM39RRM2 recruitment assay: titration of compound; assay type: binding; settings: BodipyFL-RBM39RRM2-WT 200 nM, DCAF15 200 nM; read-out: EC50 of DCAF15-RBM39RRM2 complex formation
T1 construct: Full-length human DCAF15 was used in all TR-FRET assays; RBM39RRM2 (245-332), and RBM23RRM2 (263-341); made in house; host or cells: Trichoplusia ni High Five insect cells (baculovirus)
Description: (§1) Titrations of compounds to induce DCAF15-RBM39 or DCAF15-RBM23 complex were carried out by mixing 200 nM biotinylated Strep II Avi-tagged DCAF15, 200 nM BodipyFL-labeled RBM39 or RBM23 variants, and 2 nM terbium-coupled streptavidin (Invitrogen™) in an assay buffer containing 50 mM Tris pH 8.0, 200 mM NaCl, 0.1% Pluronic F-68 solution (Sigma®), and 0.5% BSA (w/v). Full-length human DCAF15 was used in all TR-FRET assays. After dispensing the assay mixture, increasing concentrations of compounds were dispensed in a 384-well microplate (Corning, 4514) using a D300e Digital Dispenser (HP) normalized to 2% DMSO. Before TR-FRET measurements were conducted, the reactions were incubated for 15 min at room temperature. After excitation of terbium fluorescence at 337 nm, emission at 490 nm (terbium) and 520 nm (BodipyFL) were recorded with a 70 μs delay over 600 μs to reduce background fluorescence, and the reaction was followed over 60 cycles of each data point using a PHERAstar® FS microplate reader (BMG Labtech). The TR-FRET signal of each data point was extracted by calculating the 520/490 nm ratio. The half-maximal effective concentration EC50 values calculated using [Agonist] vs response (three parameters) equation in GraphPad Prism® 7.

[2] = biological target: T2, DDB1ΔB-DCAF15biotin / RBM39RRM2 (Homo sapiens, UniProt Q14498+Q66K64); experiment: TR-FRET DCAF15-RBM39 dimerization assay: titration of BodipyFL-RBM39RRM2 to DDB1ΔB-DCAF15biotin with aryl-sulfonamide; assay type: binding; settings: compound at 50 μM; DDB1ΔB-DCAF15biotin without DDA1; read-out: KD^app of RBM39RRM2 for DDB1ΔB-DCAF15 in the presence of compound
T2 construct: Full-length human DCAF15 was used in all TR-FRET assays; RBM39RRM2 (245-332), and RBM23RRM2 (263-341); made in house; host or cells: Trichoplusia ni High Five insect cells (baculovirus)
Description: Time-Resolved Fluorescence Resonance Energy Transfer (TR-FRET)
(§2) Titrations of BodipyFL-RBM39 were carried out by mixing 400 nM biotinylated Strep II Avi-tagged DCAF15 variants, 100 μM compounds or equivalent volume of DMSO, and 4 nM terbium-coupled streptavidin in the same assay buffer. After dispensing the assay mixture, increasing concentration of BodipyFL-RBM39 was added to the compound-bound DCAF15 in a 1:1 volume ratio and incubated for 15 min at room temperature. The 520/490 nm ratios were plotted to calculate the Kd values estimated using One site-Specific binding equation in GraphPad Prism® 7.

DDB1ΔB-DCAF15biotin = biological target: T3, DDB1ΔB-DCAF15biotin (Homo sapiens, UniProt Q66K64); experiment: TR-FRET competition assay: displacement of BodipyFL-E7820 by aryl-sulfonamides; assay type: binding; settings: for DCAF15 binding relative to E7820: competitive binding assay
T3 construct: Full-length human DCAF15 was used in all TR-FRET assays; made in house; host or cells: Trichoplusia ni High Five insect cells (baculovirus)
Description: The 520/490 nm ratios from the sample with DCAF15 was subtracted by the ratios from the sample without DCAF15, and the subtracted values were plotted to calculate the Kd values estimated using One site-Specific binding equation in GraphPad Prism® 7. All TR-FRET results are plotted as means±s.d. from three independent replicates (n=3) unless otherwise indicated.

[3] = system: degron tag-eGFP fusion protein in HEK293T cells; experiment: Compound-dependent degradation of degron-eGFP fusion, eGFP/mCherry ratio; assay type: cell-based; settings: 20-hour treatment
Description: To test compound-dependent degradation of the designed degron tags, a fusion protein of the tags and enhanced green fluorescence protein (eGFP) was stably expressed in HEK293T cells using a lentiviral vector. As an internal control, the cells also expressed an untagged mCherry protein downstream of the same promoter as degron-eGFP separated by an internal ribosomal entry site. […] A lower value of eGFP/mCherry at the same compound concentration indicates a higher rate of degradation. Designed degrons have higher degradation at low doses of aryl-sulfonamides and also lower IC50 values.

Kelly cells = experiment: TMT quantification mass spectrometry proteomics (degradome of E7820); assay type: cell-based; settings: E7820 10 μM, 5 h
Description: Treated Kelly cells were washed in PBS (Corning VWR, Radnor PA, USA) and collected at 3000 g centrifugation. Sample preparation and LC-MS analysis for whole proteome identification of novel E7820-dependent substrates was performed as described previously (Donovan et al., Elife 7:38430 (2018)).

[4] = biological target: T4, DDB1ΔB-DCAF15 and BodipyFL-RBM39RRM2-G268V (Homo sapiens, UniProt Q14498+Q66K64, G268V); experiment: TR-FRET recruitment assay with the RBM39RRM2 G268V mutant: titration of E7820; assay type: binding; settings: BodipyFL-RBM39RRM2-G268V 200 nM, E7820 0.002-33 μM
T4 construct: RBM39RRM2 (245-332), and RBM23RRM2 (263-341); made in house; host or cells: Trichoplusia ni High Five insect cells (baculovirus)
Description: as §1

DDB1ΔB-DCAF15biotin-DDA1 = experiment: TR-FRET titration of BodipyFL-E7820 probe to the DDA1-containing complex; assay type: binding, human; settings: with versus without DDA1
Description: Titrations of BodipyFL-E7820 (4) were carried out by mixing 200 nM biotinylated Strep II Avi-tagged DCAF15 variants or equivalent volume of the assay buffer, 2 nM terbium-coupled streptavidin in the same assay buffer. After dispensing the assay mixture, increasing concentration of BodipyFL-E7820 (4) was dispensed in the 384-well plate using D300e normalized to 2% DMSO, and then incubated for 15 min at room temperature. The 520/490 nm ratios from the sample with DCAF15 was subtracted by the ratios from the sample without DCAF15, and the subtracted values were plotted to calculate the Kd values estimated using One site-Specific binding equation in GraphPad Prism® 7. All TR-FRET results are plotted as means±s.d. from three independent replicates (n=3) unless otherwise indicated.

RBM39RRM2-biotin = biological target: T5, RBM39RRM2-biotin (Homo sapiens, UniProt Q14498); experiment: TR-FRET titration of BodipyFL-E7820 probe to RBM39RRM2-biotin; assay type: binding; settings: RBM39RRM2-biotin alone
T5 construct: RBM39RRM2 (245-332), and RBM23RRM2 (263-341); made in house; host or cells: Trichoplusia ni High Five insect cells (baculovirus)
T5 sequence (Q14498 245-332): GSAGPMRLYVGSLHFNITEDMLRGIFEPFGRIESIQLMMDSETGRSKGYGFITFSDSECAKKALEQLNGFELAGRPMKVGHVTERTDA

[5] = system: DDB1ΔB-DCAF15biotin-DDA1 / RBM39RRM2; experiment: TR-FRET titration of BodipyFL-RBM39RRM2 to the DDA1-containing complex with E7820; assay type: binding, human; settings: with versus without DDA1
Description: as §2

RBM39 in HEK293T cells = biological target: T6, RBM39 in HEK293T cells (Homo sapiens, UniProt Q14498+Q66K64); experiment: Cellular degradation of endogenous RBM39, western blot; assay type: cell-based; settings: 500 nM E7820, HEK293T, 6 h
T6 construct: cellular degradation of endogenous RBM39; endogenous in cells; host or cells: HEK293T
Description: FIG. 7A-FIG. 7G are a series of cartoon representations, graphs, and structures depicting the biochemical characterization of DCAF15 binding to aryl-sulfonamides and RBM39RRM2. FIG. 7A is a schematic representation of TR-FRET-based DCAF15-RBM39 dimerization assay. FIG. 7B is a graph of TR-FRET for the titration of BodipyFL-RBM39RRM2 (0.02-20 μM) to DDB1ΔB-DCAF15biotin at 200 nM in the absence (DMSO) or presence of aryl-sulfonamides at 50 μM. Data is plotted as means±s.d. from three independent replicates (n=3). […] FIG. 7D is a schematic representation of TR-FRET-based DCAF15 binding assay. Compound 4 is titrated to the DDB1ΔB-DCAF15biotin, and the probe is displaced by competitor compounds. FIG. 7E is the chemical structure of BodipyFL-E7820 (4). […] Data is plotted as means±s.d. from three independent replicates (n=3). FIG. 7G is an immunoblot showing cellular degradation of endogenous RBM39. […] Shown is the uncropped blot with molecular size markers. The positions of RBM39 and GAPDH are indicated, and the asterisk marks a non-specific band. Quantitation of RBM39 and GAPDH bands was performed with the LI-COR imaging system, and % RBM39 is calculated as [RBM39 intensity/GAPDH intensity].

[6] = biological target: T7, DDB1ΔB-DCAF15split and BodipyFL-RBM39RRM2 (Homo sapiens, UniProt Q14498+Q66K64); experiment: TR-FRET recruitment assay with DCAF15split: titration of E7820; assay type: binding; settings: E7820 0.002-33 μM, proteins at 200 nM
T7 construct: DCAF15 NTD (30-264), DCAF15 CTD (383-600); RBM39RRM2 (245-332), and RBM23RRM2 (263-341); Strep II Avi (N); made in house; host or cells: Trichoplusia ni High Five insect cells (baculovirus)

Kd [2] | RBM39RRM2 recruitment to DCAF15 with Gly268Val mutation [4] | Binding to RBM39RRM2 (RBM39RRM2-biotin) | Degradation of RBM39 in cells (RBM39 in HEK293T cells) | DCAF15-RBM39 dimerization, DCAF15split versus full length DCAF15 [6] | Compound | EC50 [1] | DCAF15 binding relative to E7820 (DDB1ΔB-DCAF15biotin) | Degradation of designed degron tag-eGFP (eGFP/mCherry ratio) [3] | Proteins degraded out of ~11,000 proteins detected (Kelly cells) | Effect of DDA1 on the affinity of E7820 to DCAF15 (DDB1ΔB-DCAF15biotin-DDA1) | Strengthening of apparent affinity to RBM39RRM2 by DDA1 [5] | Ki (DDB1ΔB-DCAF15biotin; DDB1ΔB-DCAF15biotin 200 nM, BodipyFL-E7820 5 μM, aryl-sulfonamides 0.002-100 μM, read-out: Ki for DCAF15)
3.5 µM |  |  |  |  | O=C(NS(=O)(=O)c1ccc(Br)s1)c1ccc(Cl)cc1Cl [tasisulam] | > 10 µM | significant loss in affinity for DCAF15 | dose-dependent degradation |  |  |  | 
 | completely abrogated | not with RBM39 | potently degraded | equivalent binding | Cc1ccc(NS(=O)(=O)c2cccc(C#N)c2)c2[nH]cc(C#N)c12 [E7820] |  |  |  | only RBM23 to be degraded in addition to RBM39 | not altered | ~3 fold | 
 |  |  |  |  | NS(=O)(=O)c1ccc(S(=O)(=O)Nc2cccc3c(Cl)c[nH]c23)cc1 [indisulam] | 3.2 µM | significant loss of DCAF15 binding; also recorded: significant loss in affinity for DCAF15 | dose-dependent degradation |  |  |  | > 50 µM

— patent publication US12428459B2, “Protein tag to induce ligand dependent degradation of protein/protein-fusions” (DANA-FARBER CANCER INSTITUTE, INC., priority 2019, dated 2025)
